The results in this text go back to patent US7399869B2, “Fibroblast activation protein inhibitor compounds and methods” (Genentech, Inc., priority 2005, dated 2008).

Format in all cases: biochemical
The target in one test is T1, DPP-7 (Homo sapiens, UniProt Q9UHL4).
T1 construct: These constructs encoded amino acids 26-492 of DPP-7; FLAG (N); made in house; host or cells: 293 cells; template plasmid from Origene
Put plainly: Relative cleavage of unblocked and N-blocked Gly-Pro-AFC by DPP-7. Conditions: protease DPP-7; unblocked vs N-blocked substrate. The protocol: (§1) The relative cleavage rates by FAP and several dipeptidases of N-blocked (8) and unblocked (7) Gly-Pro dipeptide substrates were measured.
(§2) Protease Assays—Protease activity was monitored continuously using a SpectraMax M2 microplate reader (Molecular Devices Corp., Sunnyvale Calif.) in the kinetic mode. Assays were conducted at 23° C. in 50 mM Tris (pH 7.4), 100 mM NaCl, 1 mM EDTA. The excitation/emission wavelengths for the different fluorogenic substrates were 360/460 nm (AMC), 400/505 nm (AFC), 340/425 nm (MNA), 340/510 nm (EDANS), and 337/425 nm (Abs). Standard curves of the appropriate fluorescent product versus concentration were used to convert relative fluorescence units to nmol of product produced. Substrates in the X-Pro-AMC library were used in rate assays at 5 μM final concentration. […] The kinetic parameters were calculated from Michaelis-Menten plots (V0 versus [S]) with nonlinear regression analysis using GraphPad software. kcat values were calculated under the assumption that each protease was 100% active.

Another test addresses T2, APH (Homo sapiens, UniProt P13798).
T2 construct: 2-732 of APH; FLAG (N); made in house; host or cells: 293 cells; template plasmid from Origene
T2 sequence (P13798 2-732): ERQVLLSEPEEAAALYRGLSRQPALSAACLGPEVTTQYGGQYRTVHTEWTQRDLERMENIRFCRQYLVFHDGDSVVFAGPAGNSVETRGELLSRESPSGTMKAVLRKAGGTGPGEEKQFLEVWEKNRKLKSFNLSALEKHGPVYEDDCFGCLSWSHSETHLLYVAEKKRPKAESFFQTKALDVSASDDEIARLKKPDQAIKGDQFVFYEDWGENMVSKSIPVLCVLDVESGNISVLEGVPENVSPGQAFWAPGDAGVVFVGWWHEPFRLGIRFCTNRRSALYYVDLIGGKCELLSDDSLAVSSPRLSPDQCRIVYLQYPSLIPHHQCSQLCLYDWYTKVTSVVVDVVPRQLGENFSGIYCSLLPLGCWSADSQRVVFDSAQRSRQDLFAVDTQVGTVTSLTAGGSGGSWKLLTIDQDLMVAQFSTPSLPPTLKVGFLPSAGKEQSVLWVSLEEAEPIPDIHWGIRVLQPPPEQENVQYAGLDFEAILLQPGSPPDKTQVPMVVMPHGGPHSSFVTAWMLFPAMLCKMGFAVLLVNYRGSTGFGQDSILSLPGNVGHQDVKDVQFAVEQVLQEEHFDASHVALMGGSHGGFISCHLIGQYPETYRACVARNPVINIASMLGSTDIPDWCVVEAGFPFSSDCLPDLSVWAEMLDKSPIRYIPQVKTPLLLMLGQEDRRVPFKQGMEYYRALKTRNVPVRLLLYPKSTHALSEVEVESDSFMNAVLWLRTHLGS
Put plainly: Relative cleavage of unblocked and N-blocked Gly-Pro-AFC by APH. Conditions: protease APH; unblocked vs N-blocked substrate. The protocol: as §1, §2

The target in another test is T3, FAP (Homo sapiens, UniProt Q12884).
T3 sequence (Q12884 38-760): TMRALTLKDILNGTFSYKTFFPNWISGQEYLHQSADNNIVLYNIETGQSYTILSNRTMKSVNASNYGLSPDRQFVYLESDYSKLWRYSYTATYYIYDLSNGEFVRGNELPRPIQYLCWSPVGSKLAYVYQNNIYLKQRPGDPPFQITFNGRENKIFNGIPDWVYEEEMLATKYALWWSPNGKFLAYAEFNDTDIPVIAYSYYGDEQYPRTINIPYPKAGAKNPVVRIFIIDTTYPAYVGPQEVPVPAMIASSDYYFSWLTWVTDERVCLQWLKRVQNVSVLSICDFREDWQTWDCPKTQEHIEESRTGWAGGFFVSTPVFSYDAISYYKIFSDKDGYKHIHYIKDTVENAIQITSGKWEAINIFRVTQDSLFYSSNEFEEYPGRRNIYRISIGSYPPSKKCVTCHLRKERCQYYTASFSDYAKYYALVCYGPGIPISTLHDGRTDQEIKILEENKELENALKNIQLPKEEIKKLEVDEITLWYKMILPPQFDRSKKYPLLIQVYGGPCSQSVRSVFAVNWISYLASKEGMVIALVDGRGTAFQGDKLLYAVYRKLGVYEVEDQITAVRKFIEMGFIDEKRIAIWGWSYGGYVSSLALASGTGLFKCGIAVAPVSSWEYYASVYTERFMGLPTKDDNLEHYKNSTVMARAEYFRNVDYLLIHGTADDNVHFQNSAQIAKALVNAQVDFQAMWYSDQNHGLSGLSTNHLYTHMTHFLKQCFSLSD
The experiment in a line: Hydrolysis of C-terminal coumarin dipeptide substrates by FAP (kinetic constants). Also on record: FAP (amino acids 38-760); FLAG (N); made in house; host or cells: 293 cells (secreted, purified from serum-free conditioned media). Conditions: protease FAP; unblocked vs N-blocked substrate. Here is the method: as §1
(§3) The cleavage (hydrolysis) rates of various C-terminal coumarin dipeptide substrates 7-16 by FAP and DPP-4 were measured (Tables 4 and 5). The amino-terminus of the substrates was unblocked and the amino acids were varied in Table 4. The amino-terminus of the substrates was blocked and the amino acids were varied in Table 5. To extend the results obtained with the dipeptide substrate library, kinetic parameters were determined for cleavage of the unblocked dipeptide substrates by FAP (Table 4). The catalytic efficiency (kcat/Km) for substrate cleavage was greatest with Ile-Pro-AFC, followed by Ala-Pro-, Gly-Pro- and Phe-Pro-AFC, consistent with the dipeptide substrate library results (FIG. 5). […] Kinetic constants for cleavage of Ala-Pro-AFC and Gly-Pro-AFC by DPP-4 were determined (Table 4). The catalytic efficiency for Ala-Pro-AFC hydrolysis was greater than that for Gly-Pro-AFC, and consistent with the dipeptide library.
as §2
(§4) When saturating amounts of substrate could not be achieved, catalytic efficiencies (kcat/Km) were determined under pseudo-first order conditions ([S]<<the estimated Km) and fit to the following equation: Ln[St/S0]=−kobst, where St is the concentration of substrate remaining at time t, S0 is the initial substrate concentration and kobs is the apparent first order substrate cleavage constant equal to (kcat/Km) times ET, the total enzyme concentration (Copeland, R. (2000) Enzymes, A Practical Introduction to Structure, Mechanism, and Data Analysis, 2nd Ed., John Wiley and Sons, Inc, New York). The linear relationship of Ln[St/S0] versus time allows calculation of kcat/Km by dividing the slope of the plot by ET.

Another test deals with T4, DPP-9 (Homo sapiens, UniProt Q86TI2).
T4 construct: 2-864 of DPP-9; FLAG (N); made in house; host or cells: 293 cells; template plasmid from Origene
Put plainly: Relative cleavage of unblocked and N-blocked Gly-Pro-AFC by DPP-9. Conditions: protease DPP-9; unblocked vs N-blocked substrate. The protocol:
as §1, §2

A further test has as its target T5, DPP-8 (Homo sapiens, UniProt Q6V1X1).
T5 construct: 2-883 of DPP-8; FLAG (N); made in house; host or cells: 293 cells; template plasmid from Origene
The experiment in a line: Relative cleavage of unblocked and N-blocked Gly-Pro-AFC by DPP-8. Conditions: protease DPP-8; unblocked vs N-blocked substrate. The protocol: as §1, §2

The next test has as its target DPP-4 (Homo sapiens, UniProt P27487). The experiment in a line: Hydrolysis of C-terminal coumarin dipeptide substrates by DPP-4 (kinetic constants). Also on record: DPP-4 (amino acids 39-766); FLAG (N); made in house; host or cells: 293 cells (secreted, purified from serum-free conditioned media). Conditions: protease DPP-4; unblocked vs N-blocked substrate. The protocol: as §1, §3, §2, §4

The target of a further test is T6, POP (Homo sapiens, UniProt P48147).
T6 construct: 2-710 of POP; FLAG (N); made in house; host or cells: 293 cells; template plasmid from Origene
T6 sequence (P48147 2-710): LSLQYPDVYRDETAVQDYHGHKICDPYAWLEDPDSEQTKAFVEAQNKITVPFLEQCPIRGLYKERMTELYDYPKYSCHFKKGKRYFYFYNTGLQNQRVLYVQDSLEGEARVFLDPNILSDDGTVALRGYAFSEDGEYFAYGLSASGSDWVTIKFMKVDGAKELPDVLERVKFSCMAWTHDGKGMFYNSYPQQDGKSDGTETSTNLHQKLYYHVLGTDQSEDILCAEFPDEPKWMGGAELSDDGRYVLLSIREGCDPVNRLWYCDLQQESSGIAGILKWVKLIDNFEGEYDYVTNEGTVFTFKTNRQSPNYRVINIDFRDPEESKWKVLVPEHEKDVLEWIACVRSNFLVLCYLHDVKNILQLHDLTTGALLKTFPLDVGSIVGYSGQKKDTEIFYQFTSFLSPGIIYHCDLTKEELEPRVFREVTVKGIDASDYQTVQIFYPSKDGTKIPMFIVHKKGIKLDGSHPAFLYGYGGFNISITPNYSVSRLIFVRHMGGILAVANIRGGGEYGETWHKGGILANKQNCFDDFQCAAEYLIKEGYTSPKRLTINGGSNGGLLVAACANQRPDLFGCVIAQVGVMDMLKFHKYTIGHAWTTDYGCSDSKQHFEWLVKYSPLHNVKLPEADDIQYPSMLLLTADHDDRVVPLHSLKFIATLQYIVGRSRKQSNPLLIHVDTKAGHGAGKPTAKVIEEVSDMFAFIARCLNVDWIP
The experiment in a line: Inhibition of POP by N-blocked boroPro compounds. The protocol: Briefly, proteases were added to a reaction mixture containing inhibitor and substrate (Ac-Ala-AMC for APH, Z-Gly-Pro-AMC for POP, and Ala-Pro-AFC for all others) in assay buffer at 23° C. Protease activity was followed continuously as described above to monitor time-dependent inhibition. Data were plotted as V0/Vi−1 versus [I], where V0 is the rate if substrate hydrolysis in the absence of inhibitor, Vi is the steady state rate of substrate hydrolysis in the presence of inhibitor and [I] is the concentration of Ac-Gly-BoroPro.
KI values for inhibition of proteases by 5 were determined using the method of progress curves. Briefly, proteases (10-100 nM) were added to a reaction mixture containing inhibitor 5 (0-10 μM) and substrate AP-AFC in assay buffer at 23° C. […] Data were plotted as V0/Vi−1 versus [I], where V0 is the rate if substrate hydrolysis in the absence of inhibitor, Vi is the steady state rate of substrate hydrolysis in the presence of inhibitor and [I] is the concentration of 5. […] Ki, the true equilibrium inhibition constant was determined according to the following relationship: Ki=Kobs/(1+[S]/Km), where [S] is the concentration of substrate used in the assay and Km is the Michaelis constant for substrate cleavage.
Plasmids encoding full-length proteases were obtained from Origene Technologies Inc., Rockville Md. […]

Each structure is given as a SMILES string.

Chain of DPP-4 (P27487 39-766): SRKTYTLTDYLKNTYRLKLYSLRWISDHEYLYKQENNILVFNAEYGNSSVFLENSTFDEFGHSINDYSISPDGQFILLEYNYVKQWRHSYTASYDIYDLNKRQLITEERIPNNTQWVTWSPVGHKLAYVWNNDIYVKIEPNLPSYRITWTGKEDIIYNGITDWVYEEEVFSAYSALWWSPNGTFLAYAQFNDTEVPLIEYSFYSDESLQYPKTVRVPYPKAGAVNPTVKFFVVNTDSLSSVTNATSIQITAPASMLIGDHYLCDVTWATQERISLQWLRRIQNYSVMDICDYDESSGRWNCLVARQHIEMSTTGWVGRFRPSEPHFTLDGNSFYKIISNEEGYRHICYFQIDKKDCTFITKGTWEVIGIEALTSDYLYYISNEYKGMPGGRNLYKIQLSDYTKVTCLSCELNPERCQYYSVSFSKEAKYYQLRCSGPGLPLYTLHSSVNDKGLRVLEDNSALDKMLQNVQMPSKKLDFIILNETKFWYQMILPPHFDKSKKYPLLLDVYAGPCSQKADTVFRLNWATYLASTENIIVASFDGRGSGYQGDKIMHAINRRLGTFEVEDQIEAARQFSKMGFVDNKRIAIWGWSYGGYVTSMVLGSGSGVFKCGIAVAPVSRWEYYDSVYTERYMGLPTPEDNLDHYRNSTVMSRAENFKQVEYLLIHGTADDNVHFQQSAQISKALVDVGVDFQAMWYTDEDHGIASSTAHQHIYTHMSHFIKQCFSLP
T4 sequence (Q86TI2 2-863 limits assumed): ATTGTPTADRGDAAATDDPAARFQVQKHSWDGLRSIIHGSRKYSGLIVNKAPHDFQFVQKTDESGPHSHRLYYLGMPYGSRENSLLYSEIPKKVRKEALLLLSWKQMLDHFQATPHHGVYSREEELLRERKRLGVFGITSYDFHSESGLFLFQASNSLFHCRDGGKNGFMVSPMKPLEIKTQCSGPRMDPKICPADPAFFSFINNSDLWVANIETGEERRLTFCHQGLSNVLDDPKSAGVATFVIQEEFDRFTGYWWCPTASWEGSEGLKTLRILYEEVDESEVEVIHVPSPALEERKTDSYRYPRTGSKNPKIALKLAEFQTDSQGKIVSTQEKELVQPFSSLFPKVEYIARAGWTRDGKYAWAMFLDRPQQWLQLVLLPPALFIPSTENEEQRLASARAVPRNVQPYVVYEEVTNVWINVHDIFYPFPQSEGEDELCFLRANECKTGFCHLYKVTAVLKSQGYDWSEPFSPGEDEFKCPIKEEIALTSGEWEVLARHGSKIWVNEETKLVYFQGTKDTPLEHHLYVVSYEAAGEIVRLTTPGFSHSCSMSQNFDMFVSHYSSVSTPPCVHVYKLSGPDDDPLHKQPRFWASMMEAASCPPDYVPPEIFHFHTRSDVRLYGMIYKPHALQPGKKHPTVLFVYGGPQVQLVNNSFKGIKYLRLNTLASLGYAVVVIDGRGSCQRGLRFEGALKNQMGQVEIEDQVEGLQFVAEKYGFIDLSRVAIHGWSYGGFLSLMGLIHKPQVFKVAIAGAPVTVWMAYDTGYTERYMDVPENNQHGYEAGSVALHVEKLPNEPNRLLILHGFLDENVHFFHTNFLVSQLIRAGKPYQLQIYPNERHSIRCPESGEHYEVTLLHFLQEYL
T5 sequence (Q6V1X1 18-898 limits assumed): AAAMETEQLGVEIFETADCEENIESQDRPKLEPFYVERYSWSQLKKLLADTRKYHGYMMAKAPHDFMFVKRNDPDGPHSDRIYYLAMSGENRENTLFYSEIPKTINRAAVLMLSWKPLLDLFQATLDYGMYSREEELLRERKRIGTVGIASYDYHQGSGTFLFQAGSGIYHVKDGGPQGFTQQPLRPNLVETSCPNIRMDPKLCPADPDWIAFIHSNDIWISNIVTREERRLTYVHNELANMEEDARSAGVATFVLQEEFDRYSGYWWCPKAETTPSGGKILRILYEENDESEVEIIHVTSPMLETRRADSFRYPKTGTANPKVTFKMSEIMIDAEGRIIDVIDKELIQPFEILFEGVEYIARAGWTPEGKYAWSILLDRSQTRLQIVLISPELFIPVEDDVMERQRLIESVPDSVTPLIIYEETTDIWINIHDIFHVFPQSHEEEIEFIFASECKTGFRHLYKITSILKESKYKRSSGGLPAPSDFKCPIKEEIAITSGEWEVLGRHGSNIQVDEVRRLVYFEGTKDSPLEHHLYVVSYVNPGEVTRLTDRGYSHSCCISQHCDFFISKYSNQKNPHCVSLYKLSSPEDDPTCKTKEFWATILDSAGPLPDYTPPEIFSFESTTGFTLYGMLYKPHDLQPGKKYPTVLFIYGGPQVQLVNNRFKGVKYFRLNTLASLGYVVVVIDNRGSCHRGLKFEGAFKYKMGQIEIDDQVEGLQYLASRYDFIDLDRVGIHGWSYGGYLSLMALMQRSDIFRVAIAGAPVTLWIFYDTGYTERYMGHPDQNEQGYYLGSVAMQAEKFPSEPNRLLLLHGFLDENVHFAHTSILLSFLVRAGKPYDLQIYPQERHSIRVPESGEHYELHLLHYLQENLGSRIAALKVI

Take `NCC(=O)N1CCCC1C(=O)Nc1ccc2c(C(F)(F)F)c(CC(N)=O)c(=O)oc2c1` (stereo not drawn) [Gly-Pro-AFC 7, Gly-Pro-AFC]: the “Relative Activity Gly-Pro-AFC 7/Ac-Gly-Pro-AFC 8” value was 200 on DPP-7; “no cleavage” at APH; 1.0 on FAP; 10,000 at DPP-9; 33 at DPP-8; 10,000 on DPP-4.
Consider `CC(C)C(=O)N(C)CC(=O)N1CCCC1B(O)O` (stereo not shown) [N-isobutyryl-sarcosyl-boroPro], for which the affinity on POP corresponds to a Ki of 63 nM.
